Data as given in patent US7256206B2, “Bicyclic compounds and compositions” (IRM LLC, priority 2003, dated 2007).

Key:
[1] = target: T1, human EDG-1 (Homo sapiens, UniProt P21453); test: EDG-1 (S1P1) GTP [γ-35S] binding assay (SPA); format: biochemical; conditions: for EC50: GTP [γ-35S] binding, CHO membranes
T1 construct: c-myc (N); expressed in transfected cells; membrane protein suspensions
Description: (§1) A. In vitro: a Scintillation Proximity Assay (SPA) for Measuring GTP [γ-^35S] Binding to Membranes Prepared from CHO Cells Expressing Human EDG/S1P Receptors
EDG-1 (S1P1) GTP [γ-^35S] binding assay: Membrane protein suspensions are prepared from CHO cell clones stably expressing a human EDG-1 N-terminal c-myc tag. Solutions of test compounds ranging from 10 mM to 0.01 mM are prepared in DMSO/50 mM HCl and then diluted into assay buffer (20 mM HEPES, pH7.4, 100 mM NaCl, 10 mM MgCl2, 0.1% fat free BSA). Assay buffer containing […] is mixed with wheat germ agglutinin-coated SPA-beads (1 mg/well) followed by the addition of human EDG-1 membrane protein suspension (10 μg/well) and test compound. The bead/membrane/compound assay components are then mixed for 10–15 minutes on a shaker at room temperature. GTP [γ-^35S] (200 pM) and bead/membrane/compound assay mixture are added to individual wells of a 96 well Optiplate™ (final volume 225 μl/well), sealed and incubated at room temperature for 110 to 120 minutes under constant shaking. After centrifugation (2000 rpm, 10 minutes) luminescence is measured with a TopCount™ instrument.
(§2) EC50 values are obtained by fitting the GTP [γ-^35S] binding curves (raw data) with the dose response curve-fitting tool of ORIGIN V. 6.1. Basal binding (no compound) and the highest stimulation of GTP [γ-^35S] binding achieved by an agonist are used as the fitting range. Seven different concentrations are used to generate a concentration response curve (using two or three data points per concentration).

[2] = target: T2, EDG-3 (Homo sapiens, UniProt Q99500); test: EDG-3 GTP [γ-35S] binding assay; format: biochemical; conditions: CHO membranes
T2 construct: c-myc (print says 'tagged or untagged'; not resolved for this receptor) (C); expressed in transfected cells; membranes
Text: as §1, §2
(§3) Concentrations of EDG receptor expressing membranes range between 13–19 μg per well.

[3] = target: T3, EDG-5 (Homo sapiens, UniProt O95136); test: EDG-5 GTP [γ-35S] binding assay; format: biochemical; conditions: CHO membranes
T3 construct: c-myc (print says 'tagged or untagged'; not resolved for this receptor) (C); expressed in transfected cells; membranes
Text: as §1, §2, §3

[4] = target: T4, EDG-6 (Homo sapiens, UniProt O95977); test: EDG-6 GTP [γ-35S] binding assay; format: biochemical; conditions: CHO membranes
T4 construct: c-myc (print says 'tagged or untagged'; not resolved for this receptor) (C); expressed in transfected cells; membranes
T4 sequence (O95977 1-384): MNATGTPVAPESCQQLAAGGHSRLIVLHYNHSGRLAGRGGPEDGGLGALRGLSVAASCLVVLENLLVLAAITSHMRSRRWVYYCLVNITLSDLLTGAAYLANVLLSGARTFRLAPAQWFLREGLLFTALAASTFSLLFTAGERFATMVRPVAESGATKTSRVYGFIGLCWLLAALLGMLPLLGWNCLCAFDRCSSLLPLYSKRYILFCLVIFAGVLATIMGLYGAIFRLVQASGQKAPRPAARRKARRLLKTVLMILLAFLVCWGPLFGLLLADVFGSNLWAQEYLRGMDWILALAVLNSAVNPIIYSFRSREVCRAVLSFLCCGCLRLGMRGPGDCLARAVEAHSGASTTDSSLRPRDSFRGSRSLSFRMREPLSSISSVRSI
Text: as §1, §2, §3

[5] = target: T5, EDG-8 (Homo sapiens, UniProt Q9H228); test: EDG-8 GTP [γ-35S] binding assay (RH7777 membranes); format: biochemical
T5 construct: c-myc (print says 'tagged or untagged'; not resolved for this receptor) (C); expressed in transfected cells; membranes

[6] = test system: circulating lymphocytes; test: Measurement of blood lymphocyte depletion; format: in vivo, Mice (C57bl/6 male); conditions: mice, blood collected 18 hours after administration, dose for 50% blood lymphocyte depletion; for ED50: Mus musculus, Lymphocyte, ip, 18 h
Description: (§4) C. In Vivo: Screening Assays for Measurement of Blood Lymphocyte Depletion and Assessment of Heart Effect
Measurement of circulating lymphocytes: Compounds are dissolved in DMSO and further diluted with deionized water. Mice (C57bl/6 male, 6–10 week-old) are administered 20 μg of compound (diluted in 200 μl water, 4% DMSO) via intra-peritoneal (IP) injection under short isoflurane anesthesia. Water (200 μl), 4% DMSO, and FTY720 (10 μg) are included as negative and positive controls, respectively.
Blood is collected from the retro-orbital sinus 18 hours after drug administration under short isoflurane anesthesia. Whole blood samples are subjected to hematology analysis. Peripheral lymphocyte counts are determined using an automated analyzer. Subpopulations of peripheral blood lymphocytes are stained by fluorochrome-conjugated specific antibodies and analyzed using a fluorescent activating cell sorter (Facscalibur). Two mice are used to assess the lymphocyte depletion activity of each compound screened. The result is an ED50, which is defined as the effective dose required displaying 50% of blood lymphocyte depletion.

[7] = Assessment of heart effect (AnonyMOUSE ECG screening); format: in vivo, mice (C57bl/6 male); conditions: ECG before and after compound, 90 μg IP
Description: as §4
Assessment of Heart Effect: The effects of compounds on cardiac function are monitored using the AnonyMOUSE ECG screening system. Electrocardiograms are recorded in conscious mice (C57bl/6 male, 6–10 week-old) before and after compound administration. ECG signals are then processed and analyzed using the e-MOUSE software. 90 μg of compound further diluted in 200 μl water, 15% DMSO are injected IP. Four mice are used to assess the heart effect of each compound.

T1 sequence (P21453 whole entry): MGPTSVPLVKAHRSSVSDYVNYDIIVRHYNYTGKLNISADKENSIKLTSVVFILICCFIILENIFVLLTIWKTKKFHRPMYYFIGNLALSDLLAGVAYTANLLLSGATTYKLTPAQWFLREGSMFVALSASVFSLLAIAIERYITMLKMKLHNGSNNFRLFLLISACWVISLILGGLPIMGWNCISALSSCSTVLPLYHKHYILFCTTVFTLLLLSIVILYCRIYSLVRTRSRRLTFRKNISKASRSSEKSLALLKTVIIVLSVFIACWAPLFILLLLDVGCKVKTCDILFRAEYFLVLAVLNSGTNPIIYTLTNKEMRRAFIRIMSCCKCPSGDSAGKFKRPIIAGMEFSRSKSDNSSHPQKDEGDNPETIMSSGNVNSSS
T3 sequence (O95136 whole entry): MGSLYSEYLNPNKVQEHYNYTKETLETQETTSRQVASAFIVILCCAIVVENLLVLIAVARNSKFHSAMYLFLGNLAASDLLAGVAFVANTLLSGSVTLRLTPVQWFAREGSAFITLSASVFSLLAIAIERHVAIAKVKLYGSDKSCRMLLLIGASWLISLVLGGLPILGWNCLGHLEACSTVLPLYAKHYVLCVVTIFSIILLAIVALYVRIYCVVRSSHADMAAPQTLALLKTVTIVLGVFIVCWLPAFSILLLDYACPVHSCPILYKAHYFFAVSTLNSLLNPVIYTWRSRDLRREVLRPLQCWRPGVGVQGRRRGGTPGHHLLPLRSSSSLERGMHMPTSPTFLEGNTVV
T5 sequence (Q9H228 whole entry): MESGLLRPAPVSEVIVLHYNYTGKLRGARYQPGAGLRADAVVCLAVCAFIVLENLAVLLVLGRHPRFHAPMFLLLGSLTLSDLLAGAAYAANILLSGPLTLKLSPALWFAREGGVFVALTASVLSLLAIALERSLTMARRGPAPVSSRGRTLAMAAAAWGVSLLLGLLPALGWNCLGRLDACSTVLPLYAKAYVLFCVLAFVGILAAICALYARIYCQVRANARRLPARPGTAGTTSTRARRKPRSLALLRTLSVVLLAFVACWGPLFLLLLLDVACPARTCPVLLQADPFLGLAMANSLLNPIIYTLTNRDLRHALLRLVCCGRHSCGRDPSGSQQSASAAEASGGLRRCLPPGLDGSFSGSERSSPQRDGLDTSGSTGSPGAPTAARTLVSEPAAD
T2 sequence (Q99500 whole entry): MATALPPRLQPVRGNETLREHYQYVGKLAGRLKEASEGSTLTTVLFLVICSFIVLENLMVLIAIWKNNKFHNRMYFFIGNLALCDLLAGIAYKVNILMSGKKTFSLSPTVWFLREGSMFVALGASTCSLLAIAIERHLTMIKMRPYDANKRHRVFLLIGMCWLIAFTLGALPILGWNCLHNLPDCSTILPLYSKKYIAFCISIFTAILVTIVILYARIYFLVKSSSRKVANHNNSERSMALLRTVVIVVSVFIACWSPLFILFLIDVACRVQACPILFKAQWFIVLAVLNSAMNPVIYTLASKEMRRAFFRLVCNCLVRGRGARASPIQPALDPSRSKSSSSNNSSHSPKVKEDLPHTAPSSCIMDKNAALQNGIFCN

SMILES | EC50 [1] | EC50 [2] | EC50 [3] | EC50 [4] | EC50 [5] | ED50 [6] | Heart effect in conscious mice [7] | Lymphocyte Depletion ED50 ([6]; IP) | selectivity for EDG-1 compared to EDG-3, EDG-5, EDG-6 and EDG-8 ([1]; GTP [γ-35S] binding assays)
C/C(=N\OCc1ccc(-c2cccc(C(F)(F)F)c2)cc1)c1ccc(CCC(N)(CO)COP(=O)(O)O)cc1 (stereo not drawn) | 15.7 nM | 3.5 nM | > 10000 nM | 1240 nM | 5.8 nM | < 1 mg/kg | clean |  | 
C/C(=N\OCc1ccc(-c2ccsc2)cc1)c1ccc(CCC(N)(CO)COP(=O)(O)O)cc1 (stereo not drawn) [Compound 9] | 0.79 nM | > 10000 nM | > 10000 nM | 4400 nM | > 10000 nM | 0.08 mg/kg | clean | ED50 ~0.08 mg/kg | 
C/C(=N\OCc1ccc(-c2ccccc2)cc1)c1ccc(CCC(N)(CO)COP(=O)(O)O)cc1 (stereo not drawn) | 0.86 nM | > 10000 nM | > 10000 nM | 168 nM | > 10000 nM | ~0.1 mg/kg | clean |  | 
C/C(=N\OCc1ccc(-c2cccs2)cc1)c1ccc(CCC(N)(CO)COP(=O)(O)O)cc1 (stereo not drawn) [Compound 10, phosphoric acid mono-(2-amino-2-hydroxymethyl-4-{4-[1-(4-thiophen-2-yl-benzyloxy-imino)-ethyl]-phenyl}-butyl)ester] | 1.15 nM | > 10000 nM | > 10000 nM | > 10000 nM | > 10000 nM | ~0.2 mg/kg | clean |  | at least 1000 fold
